Measured values as given in US8343490B2, “Monoclonal antibody SC104 and derivative thereof specifically binding to a sialyltetraosyl carbohydrate as a potential anti-tumor therapeutic agent” (Cephalon Australia Pty Ltd, priority 2004, dated 2013).
Where two headings read alike, the source gives them in different places.

How the values were obtained:
C170 xenografts [1] = type: in vivo
Experimental: (§1) Prevention model. The colorectal tumour cell line, C170 was maintained in serial passage in nude mice. For therapy the mice were sacrificed and the tumours excised. The tumour was finely minced and […] pieces were implanted, under anaesthetic, subcutaneously into 30 male mice which had been randomly allocated to 4 experimental groups.
Mice were explanted with 3 mm^3 pieces of C170 xenografts. Groups of mice were treated with 5-FU/leucovorin (12.5 mg/Kg) by intravenous infusion on days 1, 3, 5, 7 and 28. On the same days mice were also injected intraperitonealy with 0.2 mg of SC104 mab. Control mice received either SC104 alone or control mouse IgG antibody with 5-FU/leucovorin. Tumour size was measured by callipers and tumour cross sectional area calculated on days 7, 9, 12, 14 and 16. Animals were weighed to assess the toxicity of treatment. At the termination of the experiment tumours were weighed to assess anti-tumour efficacy.

C170 cells = test: In vitro inhibition of cell growth in combination with cytotoxic drugs, MTS; type: cell-based; settings: 5 days, FIG. 25
Experimental: 1×10^3 colorectal C170 cells were aliquoted into individual wells of a flat bottomed 96-well plate and left to adhere overnight at 37° C. The following day the cells were treated with cisplatin, mitomycin C, oxaliplatin and tamoxifen at final concentrations of 10, 3, 1, 0.3, 0.1 and 0 μM. Against each concentration of drug the following concentrations of SC104 were titrated: 10, 3, 1, 0.3 and 0 μg/ml. As a negative control 791T/36 at concentrations 100, 30, 10, 3 and 0 μg/ml, was titrated against each concentration of drug used. Duplicate wells were used. Cells were left for 5 days at 37° C. prior to the addition of MTS reagent to each well and optical density reading at 490 nm.

C170 xenografts [2] = test: C170 xenograft therapeutic model; type: in vivo, nude mice; settings: administered therapeutically, after C170 xenograft implantation; FIG. 27
Experimental: as §1, with “Therapeutic” for “Prevention”
Mice were explanted with 3 mm^3 pieces of C170 xenografts. […] On the same days mice were also injected intraperitonealy with 0.2 mg of SC104 mab. Control mice received either SC104 alone or control mouse IgG antibody with 5FU/leucovorin. Tumour size was measured by callipers and tumour cross sectional area calculated on days 12, 16, 19 and 23.

C170 xenografts [3] = type: in vivo; settings: day 6

Compound: 5-FU/leucovorin [reference compound]
- inhibition of tumour growth of freshly explanted tumours (C170 xenografts [1]; SC104 200 μg/dose ip, 5-FU/leucovorin at maximum tolerated dose, FIG. 26a): 50%

Compound: O=c1[nH]cc(F)c(=O)[nH]1 [5-FU, 5-Fluorouracil, reference compound]
- additive killing in combination with SC104 (C170 cells): additive killing
- survival of mice (C170 xenografts [1]; Log Rank, FIG. 26b): significant improvement of survival
- inhibition of tumour growth (C170 xenografts [1]; day 9): 40%
- inhibition of tumour growth (C170 xenografts [1]; day 12): 45%
- inhibition of tumour growth (C170 xenografts [1]; day 14): 58%
- inhibition of tumour growth (C170 xenografts [2]): neither 5FU nor SC104 alone significantly inhibited growth
- inhibition of tumour growth (C170 xenografts [3]): 62%

Compound: N.N.[Cl][Pt][Cl] [cisplatin]
- additive killing in combination with SC104 (C170 cells): additive killing

Compound: CO[C@@]12[C@H](COC(N)=O)C3=C(C(=O)C(C)=C(N)C3=O)N1C[C@@H]1N[C@@H]12 [mitomycin C, Mitomycin C]
- additive killing in combination with SC104 (C170 cells): additive killing

Compound: O=C1[O][Pt]2([NH][C@@H]3CCCC[C@H]3[NH]2)[O]C1=O [oxaliplatin]
- additive killing in combination with SC104 (C170 cells): No additive effect

Compound: CC/C(=C(\c1ccccc1)c1ccc(OCCN(C)C)cc1)c1ccccc1 [tamoxifen]
- additive killing in combination with SC104 (C170 cells): additive killing
